Test results reported in ChEMBL document CHEMBL1641523, “Hypericins and thioredoxin reductase: Biochemical and docking studies disclose the molecular basis for effective inhibition by naphthodianthrones” (Bioorg Med Chem, 2011).
Calls of active or inactive are those of the source. No cut-off for these calls is given here.

Legend:
[1] = target: T1, Thioredoxin reductase 1, cytoplasmic (Rattus norvegicus, UniProt O89049); test: Inhibition of rat liver cytosolic TrxR1 by spectrophotometry
T1 sequence (O89049 whole entry): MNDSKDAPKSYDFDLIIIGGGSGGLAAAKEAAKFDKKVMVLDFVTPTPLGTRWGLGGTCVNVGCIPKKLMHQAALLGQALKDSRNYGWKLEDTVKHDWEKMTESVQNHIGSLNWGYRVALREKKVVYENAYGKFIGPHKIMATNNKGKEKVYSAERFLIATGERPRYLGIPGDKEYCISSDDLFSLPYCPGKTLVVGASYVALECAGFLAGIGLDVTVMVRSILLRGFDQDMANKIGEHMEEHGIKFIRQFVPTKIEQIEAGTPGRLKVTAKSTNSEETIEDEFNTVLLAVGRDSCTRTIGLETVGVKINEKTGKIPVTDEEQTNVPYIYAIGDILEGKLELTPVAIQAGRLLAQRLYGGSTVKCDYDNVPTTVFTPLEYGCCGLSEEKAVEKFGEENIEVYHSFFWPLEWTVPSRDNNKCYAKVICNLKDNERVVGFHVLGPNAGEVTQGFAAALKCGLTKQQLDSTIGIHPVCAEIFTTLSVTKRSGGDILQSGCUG

[2] = target: Thioredoxin reductase 2, mitochondrial (Rattus norvegicus, UniProt Q9Z0J5); test: Inhibition of rat liver mitochondrial TrxR2 by spectrophotometry
Thioredoxin reductase 2, mitochondrial, sequence (Q9Z0J5 whole entry): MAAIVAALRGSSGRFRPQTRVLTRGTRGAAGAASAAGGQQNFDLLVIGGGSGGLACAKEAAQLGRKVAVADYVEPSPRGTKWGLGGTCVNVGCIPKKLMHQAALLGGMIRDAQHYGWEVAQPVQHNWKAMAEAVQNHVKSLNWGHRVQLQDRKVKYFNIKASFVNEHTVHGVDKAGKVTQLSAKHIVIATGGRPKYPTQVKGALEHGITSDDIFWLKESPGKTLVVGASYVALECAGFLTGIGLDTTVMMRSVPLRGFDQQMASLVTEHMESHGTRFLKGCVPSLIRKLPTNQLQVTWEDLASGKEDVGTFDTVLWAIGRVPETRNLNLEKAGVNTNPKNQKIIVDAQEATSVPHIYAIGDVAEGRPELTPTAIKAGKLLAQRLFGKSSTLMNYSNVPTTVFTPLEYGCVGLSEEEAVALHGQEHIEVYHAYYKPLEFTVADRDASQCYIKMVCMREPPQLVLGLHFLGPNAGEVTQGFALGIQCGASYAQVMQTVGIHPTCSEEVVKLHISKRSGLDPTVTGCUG

Glutathione reductase = target: T2, Glutathione reductase (Saccharomyces cerevisiae S288c, UniProt P41921); test: Inhibition of yeast glutathione reductase by spectrophotometry
T2 sequence (P41921 whole entry): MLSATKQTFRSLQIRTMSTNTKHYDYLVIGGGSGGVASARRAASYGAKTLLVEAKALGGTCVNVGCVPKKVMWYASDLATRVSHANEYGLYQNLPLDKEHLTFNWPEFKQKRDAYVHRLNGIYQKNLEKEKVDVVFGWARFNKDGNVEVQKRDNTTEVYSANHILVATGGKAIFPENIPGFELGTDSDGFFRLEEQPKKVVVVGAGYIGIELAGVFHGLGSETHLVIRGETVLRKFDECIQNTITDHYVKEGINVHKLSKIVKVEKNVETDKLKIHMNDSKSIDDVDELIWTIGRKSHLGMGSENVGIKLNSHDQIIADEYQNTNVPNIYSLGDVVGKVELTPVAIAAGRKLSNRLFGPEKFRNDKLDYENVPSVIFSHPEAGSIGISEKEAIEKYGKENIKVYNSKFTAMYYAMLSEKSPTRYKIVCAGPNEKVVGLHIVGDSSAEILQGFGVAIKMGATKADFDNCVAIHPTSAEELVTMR

[3] = target: T3, Thioredoxin reductase 1, cytoplasmic (Rattus norvegicus) (UniProt O89049); test: Inhibition of rat liver cytosolic TrxR1 at 20 uM after 1 hr by spectrophotometry
T3 sequence (whole entry): T1 sequence (O89049 whole entry)

[4] = target: T3, Thioredoxin reductase 1, cytoplasmic (Rattus norvegicus); test: Inhibition of rat liver cytosolic TrxR1 at 20 uM after 2 mins by spectrophotometry
[5] = target: T3, Thioredoxin reductase 1, cytoplasmic (Rattus norvegicus); test: Inhibition of rat liver cytosolic TrxR1 at 100 uM by spectrophotometry in presence of 0.25 mM NADPH
[6] = target: Thioredoxin reductase 2, mitochondrial (Rattus norvegicus) (UniProt Q9Z0J5); test: Inhibition of rat liver mitochondrial TrxR2 at 100 uM by spectrophotometry in presence of 0.25 mM NADPH
Thioredoxin reductase 2, mitochondrial (Rattus norvegicus), sequence (Q9Z0J5 whole entry): as the sequence (Q9Z0J5 whole entry) above

[7] = target: T1, Thioredoxin reductase 1, cytoplasmic; test: Mixed-type inhibition of rat liver cytosolic TrxR1 by Lineweaver-Burk plot analysis
[8] = target: T1, Thioredoxin reductase 1, cytoplasmic; test: Mixed-type inhibition of rat liver cytosolic TrxR1 at protein-substrate complex by Lineweaver-Burk plot analysis
[9] = target: T3, Thioredoxin reductase 1, cytoplasmic (Rattus norvegicus); test: Inhibition of rat liver cytosolic TrxR1 at 50 to 100 uM by spectrophotometry in presence of 0.025 mM NADPH
[10] = target: T3, Thioredoxin reductase 1, cytoplasmic (Rattus norvegicus); test: Inhibition of rat liver cytosolic TrxR1 at 5 uM after 2 mins by spectrophotometry

| IC50 ([1]; read-out: IC50) [µM] | IC50 ([2]; read-out: IC50) [µM] | SMILES | other results |
| --- | --- | --- | --- |
| > 200 | > 200 | O=C1c2ccccc2Cc2ccccc21 [ANTHRONE] | – |
| 194 | 181 | Cc1cc(O)c2c(c1)C(=O)c1cccc(O)c1C2=O [CHRYSOPHANOL] | – |
| > 200 | > 200 | Cc1cc(O)c2c(c1)C(=O)c1cc(O[C@@H]3O[C@@H](C)[C@H](O)[C@@H](O)[C@H]3O)cc(O)c1C2=O [FRANGULIN A] | – |
| 185 | 132 | COc1cc(O)c2c(c1)C(=O)c1cc(C)cc(O)c1C2=O [PHYSCION] | – |
| > 200 | > 200 | O=C1c2ccccc2C(=O)c2c(O)ccc(O)c21 [QUINIZARIN] | – |
| 84 | 123 | O=C(O)c1cc(O)c2c(c1)C(=O)c1cccc(O)c1C2=O [RHEIN] | – |
| > 200 | > 200 | O=C(O)c1cc(O)c2c(c1)C([C@H]1c3cc(C(=O)O)cc(O)c3C(=O)c3c(O[C@@H]4O[C@H](CO)[C@@H](O)[C@H](O)[C@H]4O)cccc31)c1cccc(O[C@@H]3O[C@H](CO)[C@@H](O)[C@H](O)[C@H]3O)c1C2=O (some centres not stated) [SENNOSIDE A,B] | – |

The remaining lines, values behind:

| SMILES | IC50 ([1]; read-out: IC50) [µM] | IC50 ([2]; read-out: IC50) [µM] | other results |
| --- | --- | --- | --- |
| O=C1c2cccc(O)c2C(=O)c2c(O)cc(CO)cc21 [ALOE-EMODIN] | 180 | > 200 | – |
| O=C1c2c(O)cccc2C([C@@H]2O[C@H](CO)[C@@H](O)[C@H](O)[C@H]2O)c2cc(CO)cc(O)c21 (some centres not stated) [ALOIN] | > 200 | > 200 | – |
| O=C1c2cccc(O)c2C(=O)c2c(O)cccc21 [DANTHRON] | > 200 | > 200 | – |
| Cc1cc(O)c2c(=O)c3c(O)cc(O)c4c5c(O)cc(O)c6c(=O)c7c(O)cc(C)c8c1c2c(c34)c(c78)c65 [HYPERICIN] | 198 | 49 | IC50 ([1]; read-out: pIC50 (converted)): 158 µM; IC50 ([2]; read-out: pIC50 (converted)): 43.2 µM; IC50 (Glutathione reductase): 3.67 µM; inhibition [3]: 60%; inhibition [4]: 20%; inhibition [5]: inactive; inhibition [6]: inactive |
| Cc1cc(O)c2c(=O)c3c(O)cc(O)c4c5c(O)cc(O)c6c(=O)c7c(O)cc(CO)c8c1c2c(c34)c(c65)c78 [PSEUDOHYPERICIN] | 4.6 | 7.9 | IC50 ([1]; read-out: pIC50 (converted)): 4.41 µM; IC50 ([2]; read-out: pIC50 (converted)): 7.45 µM; Ki [7]: 1.9 µM; Ki [8]: 8.1 µM; inhibition [9]: Active; IC50 (Glutathione reductase): 2.2 µM; inhibition [10]: 50%; inhibition [5]: Active; inhibition [6]: Active |
| Cc1cc(O)c2c(c1)C(=O)c1c(c(O)cc(O)c1-c1c(O[C@@H]3O[C@H](CO)[C@@H](O)[C@H](O)[C@H]3O)cc(O)c3c1C(=O)c1cc(C)cc(O)c1C3=O)C2=O [SKYRIN GLUCOSIDE] | > 200 | > 200 | – |
